Measured values as given in patent publication US11945779B2, “Inhibitors of cancer metastasis through inhibiting migration and invasion of cancer cells” (VSpharmtech, priority 2018, dated 2024).

Columns and labels:
colon cancer cells DLD-1 = assay: Cancer cell invasion inhibition (Matrigel trans-well), DLD-1; format: cell-based; conditions: Homo sapiens, DLD-1; 5 μM
Description: In order to analyze cancer cell invasion inhibitory activity of CG-609 or CG-618 prepared in Example 1 or 9, cell invasion inhibitory activity using a trans-well was measured by targeting colon cancer cell line DLD-1 cells or pancreatic cancer cell line AsPc-1 cells.
Matrigel was diluted by 1/5 using an RPMI medium without FBS and then […] was put into each trans-well. The cells were coated in a […] for 2 hours. The number of DLD-1 cells was measured using a hemocytometer in an RPMI medium without FBS. Thereafter, the coated trans-well was placed on a 24-well plate and 8×10^4 […] of cells were added. In an empty space of the trans-well on the well plate, […] of an RPMI medium having 10% FBS containing (S)-(−)-benproperine was added and cultured in a CO2 incubator at 37° C. for 16 hours. After culture, […] of crystal violet (5 mg/mL of 20% MeOH) was added to each well of the 24-well plate and the trans-well was dyed at room temperature for 30 minutes. The dyed trans-well was washed with PBS and non-migrated cells were wiped off with cotton swabs. The prepared sample was photographed with an inverted microscope mounted with a digital camera (TE 300, Nikon, Japan), and then the number of migrated cells was counted. The degree of inhibiting cell migration was calculated for a group treated with the sample compared to a control group (DMSO).

[1] = system: colon cancer cell line DLD-1; assay: Trans-well cancer cell migration inhibition, DLD-1; format: cell-based, human; conditions: Homo sapiens; Colon cancer cell DLD-1, trans-well, 16 hours; read-out: Concentration inhibiting migration of cancer cells by 50% (IC50 value)
Description: (§1) In order to analyze cancer cell migration inhibitory activity of CG-608, CG-609 or CG-618 prepared in Examples 1, 2, or 9, cell migration inhibitory activity was measured using a trans-well by targeting a colon cancer cell line DLD-1 (ATCC-CCL-221), pancreatic cancer cell lines AsPc-1 (ATCC-CCL-1682). CFPAC-1 (ATCC-CCL-1918). Panc-1 (ATCC-CCL-1469), and Miapaca-2 (ATCC-CCL-1420), a skin cancer cell line A375-P (ATCC-CCL-3224), lung cancer cell lines HCC-827 (ATCC-CCL-2868), A549 (ATCC-CCL-185), and NCI-H460 (ATCC-CCL-177), a prostate cancer cell line DU145 (ATCC-HTB-81), a stomach cancer cell line NuGC-3 (JCRB0822), and an ovarian cancer cell line SKOV-3 (ATCC-HTB-77).
(§2) First, the number of DLD-1 cells was measured using a hemocytometer in an RPMI medium without FBS. Thereafter, the trans-well was placed on a 24-well plate and 8×10^4 […] of cells were added. In an empty space with the trans-well on the well plate, […] of an RPM medium having 10% FBS containing CG-608, CG-609, or CG-618 was added and cultured in a CO2 incubator at 37° C. for 16 hours. After culture, […] of crystal violet (5 mg/mL of 20% […] was added to each well of the 24-well plate and the trans-well was dyed at room temperature for 30 minutes. The dyed trans-well was washed with PBS and non-migrated cells were wiped off with cotton swabs. The prepared sample was photographed with an inverted microscope mounted with a digital camera (TE 300, Nikon. Japan) and then the number of migrated cells was counted. The degree of inhibiting cell migration was calculated by Equation 1 for a group treated with the sample compared to a control group (DMSO).
(§3) In Equation 1, ‘the number of migrated cells treated with sample’ refers to the number of migrated cells measured by treating CG-608 or CG-618 of Example 1, and ‘the number of migrated cells of a control sample’ refers to the number of migrated cells measured by treating only 1% dimethyl sulfoxide (DMSO) instead of the compound.

[2] = system: stomach cancer cell line NuGC-3; assay: Trans-well cancer cell migration inhibition, NuGC-3; format: cell-based; conditions: Homo sapiens; Gastric cancer cell NuGC-3; read-out: Concentration inhibiting migration of cancer cells by 50% (IC50 value)
Description: as §1, §2, §3

[3] = system: skin cancer cell line A375-P; assay: Trans-well cancer cell migration inhibition, A375-P; format: cell-based; conditions: Homo sapiens, A375P; Skin cancer cell A375-P; read-out: Concentration inhibiting migration of cancer cells by 50% (IC50 value)
Description: as §1, §2, §3

[4] = system: prostate cancer cell line DU145; assay: Trans-well cancer cell migration inhibition, DU145; format: cell-based; conditions: Homo sapiens, DU-145; Prostate cancer cell DU145; read-out: Concentration inhibiting migration of cancer cells by 50% (IC50 value)
Description: as §1, §2, §3

[5] = system: pancreatic cancer cell line AsPc-1; assay: Trans-well cancer cell migration inhibition, AsPc-1; format: cell-based; conditions: Homo sapiens, ASPC1; Pancreatic cancer cell line AsPc-1; read-out: Concentration inhibiting migration of cancer cells by 50% (IC50 value)
Description: as §1, §2, §3

[6] = system: lung cancer cell line HCC-827; assay: Trans-well cancer cell migration inhibition, HCC-827; format: cell-based; conditions: Homo sapiens, HCC827; Lung cancer cell HCC-827; read-out: Concentration inhibiting migration of cancer cells by 50% (IC50 value)
Description: as §1, §2, §3

[7] = Acute toxicity test for oral administration to rats; conditions: rat, in vivo, 1000 mg/kg; SD rats, single oral dose; read-out: Minimum dose (LD50) of oral administration
Description: Six-week-old specific pathogen free (SPF) SD-based rats were divided by two per group and then CG-608, CG-609, or CG-618 prepared in Example 1, 2, or 9 was dissolved in distilled water for injection and orally administered to rats once in a dose of 1000 mg/kg.

Row | Compound | inhibition at 5 µM (colon cancer cells DLD-1) | IC50 [1] | IC50 [2] | IC50 [3] | IC50 [4] | IC50 [5] | IC50 [6] | LD50 [7]
1 | CC(COc1ccccc1Cc1ccccc1)N1CCCCC1 (centres unmarked) [benproperine, reference compound] | 50% | 2000 nM | < 20000 nM | 7000 nM | 20000 nM | 3000 nM | 20000 nM | –
2 | CC1CCCCN1[C@@H](C)COc1ccccc1Cc1ccccc1 (stereo partly drawn) [CG-608, 1-((S)-1-(2-benzylphenoxy)propan-2-yl)-2-methylpiperidine] | – | 200 nM | 2000 nM | 1500 nM | 5000 nM | 250 nM | 1500 nM | ≥ 1000 mg/kg
